From patent US20080058330A1, “Compounds and Combinations Thereof for Inhibiting Beta-Amyloid Production and Methods of Use Thereof” (Roskamp Research LLC, priority 2006, published 2008) come the findings set out here.

The structures appear in SMILES notation.

The first data set concerns 7W WT APP751 CHO cells. The data set can be described thus: Measurement of Aβ1-40 and Aβ1-42 by ELISA after treatment with calcium channel blockers (Example 1). Format: cell-based, Chinese hamster. Conditions: 20 μM (FIG. 2). On the procedure: Chinese hamster ovary (CHO) cells, stably transfected with human APP751 (7W WT APP751 CHO cells) were used. See, e.g., Koo and Squazzo, J. Biol. Chem., Vol. 269, Issue 26, 17386-17389, July, 1994. The cells were maintained in DMEM medium supplemented with 10% fetal bovine serum and IX mixture of penicillin/streptomycin/fungizone/glutamine mixture (Cambrex, Md.) geneticin as selecting agent in 75 cm^2 cell culture flasks.
The 7W WT APP751 CHO cells were plated in 24-well cell culture plates in quadruplicate, containing 1 ml of culture medium, and treated with various calcium channel blocker compounds for 4 hours, 24 hours or 48 hours at 37° C. and 5% CO2. […] The culture medium was collected and diluted 5-fold for the 4 hours assay and 50-fold for the 24 hour assay before being assayed by ELISAs for Aβ1-40 and Aβ1-42, respectively. Concentrations of Aβ1-40 and Aβ1-42, expressed in pg/ml, were determined using commercially available ELISAs (Biosource, Calif.) in a colorimetric assay using labeled antibodies detected spectrophotometrically.
As to `CC(C)(C)c1cc(C=C(C#N)C#N)cc(C(C)(C)C)c1O` [tyrphostin A9], the “concentration of Aβ1-40 compared to controls” value is “significantly decreased”, the “concentration of Aβ1-42 compared to controls” value is given as “significantly decreased” and the “concentration of total β-amyloid compared to controls” value is “significantly decreased”.

Still in this data set, the particulars now being: 20 μM (FIG. 4).
`Clc1ccccc1C(c1ccccc1)(c1ccccc1)n1ccnc1` [clotrimazole]: the “concentration of Aβ1-40 compared to controls” value is listed as “significantly decreased” and the “concentration of total β-amyloid compared to controls” value is on record as “significantly decreased”.

Still in this data set, the particulars now being: 30 μM (FIG. 3).
Take `C#CCN1C(C)=C(C(=O)OC)C(c2cccc([N+](=O)[O-])c2)C(C(=O)OCC)=C1C` (stereo not drawn) [MRS 1845, N-propargylnitrendipine]: the “concentration of Aβ1-40 compared to controls” value is on record as “significantly decreased” and the “concentration of total β-amyloid compared to controls” value is “significantly decreased”.

The same data set, now with this note: 30 μM (FIG. 4).
Take `CN(C)C(=O)C(CCN1CCC(O)(c2ccc(Cl)cc2)CC1)(c1ccccc1)c1ccccc1` [loperamide]: the “concentration of Aβ1-40 compared to controls” value is recorded as “significantly decreased”, the “concentration of Aβ1-42 compared to controls” value was “significantly decreased” and the “concentration of total β-amyloid compared to controls” value is given as “significantly decreased”.

Tested on in the next data set: not given
Assay: not given
Details: not given
In turn, `CCOC(=O)C1=C(C)NC(C)=C(C(=O)OCC)C1c1ccccc1I` [Example 18, Diethyl 1,4-dihydro-4-(2-iodophenyl)-2,6-dimethylpyridine-3,5-dicarboxylate] yielded a melting point of 173 to 174.5 °C.

In the case of `CCOC(=O)C1=C(C)NC(C)=C(C(=O)OCC)C1c1cccc(Cl)c1Cl` [Example 31, Diethyl 4-(2,3-dichlorophenyl)-1,4-dihydro-2,6-dimethylpyridine-3,5-dicarboxylate], the melting point fell in the range of 125 to 126 °C.

For `CC1=C(C(=O)OC(C)(C)C)C(c2ccc(F)c(Br)c2)C(C(=O)OC(C)(C)C)=C(C)N1` [Example 42, Di-tert-butyl 4-(3-bromo-4-fluorophenyl)-1,4-dihydro-2,6-dimethylpyridine-3,5-dicarboxylate], the melting point was in the range of 171 to 172 °C.

On to `COC(=O)C1=C(C)NC(C)=C(C(C)=O)C1c1ccccc1Br` (stereo not drawn) [Example 59, Methyl 5-acetyl-4-(2-bromophenyl)-1,4-dihydro-2,6-dimethylpyridine-3-carboxylate], for which the melting point lay in the range of 146 to 148 °C.

Consider `CC1=C(C(=O)OC(C)(C)C)C(c2cc(Br)ccc2F)C(C(=O)OC(C)(C)C)=C(C)N1` [Example 48, Di-tert-butyl 4-(5-bromo-2-fluorophenyl)-1,4-dihydro-2,6-dimethylpyridine-3,5-dicarboxylate], for which the melting point lay in the range of 173 to 174 °C.

In turn, `COC(=O)C1=C(C)NC(C)=C(C(=O)OC)C1c1ccccc1Br` [Example 19, Dimethyl 4-(2-bromophenyl)-1,4-dihydro-2,6-dimethylpyridine-3,5-dicarboxylate] had a melting point of 164 to 165 °C.

Turning to `CCOC(=O)C1=C(C)NC(C)=C(C(=O)OC)C1c1ccccc1Br` (stereo not drawn) [Example 58, 3-Ethyl 5-methyl 4-(2-bromophenyl)-I14-dihydro-2,6-dimethylpyridine-3,5-dicarboxylate], the melting point fell in the range of 134.5 to 135.5 °C.

As to `CCOC(=O)C1=C(C)NC(C)=C(C(=O)OCC)C1c1ccc(Br)cc1F` [Example 43, Diethyl 4-(4-bromo-2-fluorophenyl)-1,4-dihydro-2,6-dimethylpyridine-3,5-dicarboxylate], the melting point was in the range of 154 to 155 °C.

In turn, `CC1=C(C(=O)OC(C)(C)C)C(c2ccc(Br)cc2F)C(C(=O)OC(C)(C)C)=C(C)N1` [Example 44, Di-tert-butyl 4-(4-bromo-2-fluorophenyl)-1,4-dihydro-2,6-dimethylpyridine-3,5-dicarboxylate] showed a melting point of 187 to 188 °C.

In turn, `CCOC(=O)C1=C(C)NC(C)=C(C(=O)OCC)C1c1ccc(Cl)cc1` [Example 22, Diethyl 4-(4-chlorophenyl)-1,4-dihydro-2,6-dimethylpyridine-3,5-dicarboxylate] returned a melting point of 151 to 152 °C.

In turn, `CCOC(=O)C1=C(C)NC(C)=C(C(=O)OCC)C1c1cc(Cl)cc(Cl)c1` [Example 37, Diethyl 4-(3,5-dichlorophenyl)-1,4-dihydro-2,6-dimethylpyridine-3,5-dicarboxylate] showed a melting point of 102 to 104 °C.

`COCC1=C(C(=O)OC)C(c2ccc(Br)cc2)C(C(=O)OC)=C(COC)N1` [Example 53, Dimethyl 4-(4-bromophenyl)-1,4-dihydro-2,6-bis(methoxymethyl)pyridine-3,5-dicarboxylate] came in with a melting point of 162 to 163 °C.

For `COCC1=C(C(=O)OC)C(c2ccccc2Cl)C(C(=O)OC)=C(COC)N1` [Example 17, Dimethyl 4-(2-chlorophenyl)-1,4-dihydro-2,6-bis(methoxymethyl)pyridine-3,5-dicarboxylate], the melting point was in the range of 137 to 138 °C.

Molecule `CC1=C(C(=O)OC(C)(C)C)C(c2ccccc2F)C(C(=O)OC(C)(C)C)=C(C)N1` [Example 13, Di-tert-butyl 4-(2-fluorophenyl)-1,4-dihydro-2,6-dimethylpyridine-3,5-dicarboxylate] yielded a melting point of 201 to 202 °C.

In turn, `C=CCOC(=O)C1=C(C)NC(C)=C(C(=O)OCC=C)C1c1ccccc1Cl` [Example 16, Diallyl 4-(2-chlorophenyl)-1,4-dihydro-2,6-dimethylpyridine-3,5-dicarboxylate] showed a melting point of 98 to 99 °C.

The molecule `CC1=C(C(=O)OC(C)(C)C)C(c2cccc(F)c2)C(C(=O)OC(C)(C)C)=C(C)N1` [Example 50, Di-tert-butyl 4-(3-fluorophenyl)-1,4-dihydro-2,6-dimethylpyridine-3,5-dicarboxylate] registered a melting point of 178 to 179 °C.

In turn, `CC1=C(C(=O)OC(C)(C)C)C(c2ccc(Br)cc2)C(C(=O)OC(C)(C)C)=C(C)N1` [Example 27, Di-tert-butyl 4-(4-bromophenyl)-1,4-dihydro-2,6-dimethylpyridine-3,5-dicarboxylate] returned a melting point of 206 to 207 °C.

The molecule `COC(=O)C1=C(C)NC(C)=C(C(=O)OC)C1c1ccccc1Cl` [Example 8, Dimethyl 4-(2-chlorophenyl)-1,4-dihydro-2,6-dimethylpyridine-3,5-dicarboxylate] displayed a melting point of 188 to 189 °C.

Regarding `CC1=C(C(=O)OC(C)(C)C)C(c2ccccc2Cl)C(C(=O)OC(C)(C)C)=C(C)N1` [Example 9, Di-tert-butyl 4-(2-chlorophenyl)-1,4-dihydro-2,6-dimethylpyridine-3,5-dicarboxylate], the melting point was in the range of 194 to 196 °C.

Regarding `CCOC(=O)C1=C(C)NC(C)=C(C(=O)OCC)C1c1ccc(F)c(Br)c1` [Example 41, Diethyl 4-(3-bromo-4-fluorophenyl)-1,4-dihydro-2,6-dimethylpyridine-3,5-dicarboxylate], the melting point was 118 to 119 °C.

Molecule `COCCOC(=O)C1=C(C)NC(C)=C(C(=O)OCCOC)C1c1ccccc1Cl` [Example 10, Bis(2-methoxyethyl) 4-(2-chlorophenyl)-1,4-dihydro-2,6-dimethylpyridine-3,5-dicarboxylate] returned a melting point of 120 to 121 °C.

`C=CCOC(=O)C1=C(C)NC(C)=C(C(=O)OCC=C)C1c1ccc(Br)cc1` [Example 40, Diallyl 4-(4-bromophenyl)-1,4-dihydro-2,6-dimethylpyridine-3,5-dicarboxylate] yielded a melting point of 130 to 131 °C.

Take `COCCOC(=O)C1=C(C)NC(C)=C(C(=O)OCCOC)C1c1ccc(Br)cc1` [Example 46, Bis(2-methoxyethyl) 4-(4-bromophenyl)-1,4-dihydro-2,6-dimethylpyridine-3,5-dicarboxylate]: the melting point was in the range of 116 to 117 °C.

In the case of `CCOC(=O)C1=C(C)NC(C)=C(C(=O)OCC)C1c1cc(Br)ccc1F` [Example 47, Diethyl 4-(5-bromo-2-fluorophenyl)-1,4-dihydro-2,6-dimethylpyridine-3,5-dicarboxylate], the melting point is 118 to 119 °C.

`CCOC(=O)C1=C(C)NC(C)=C(C(=O)OCC)C1c1ccccc1Br` [Example 11, Diethyl 4-(2-bromophenyl)-1,4-dihydro-2,6-dimethylpyridine-3,5-dicarboxylate] gave a melting point of 144 to 145 °C.

`CCOC(=O)C1=C(C)N(Cc2ccccc2)C(C)=C(C(=O)OCC)C1c1ccc(Br)cc1` [Example 54, Diethyl 1-benzyl-4-(4-bromophenyl)-1,4-dihydro-2,6-dimethylpyridine-3,5-dicarboxylate] displayed a melting point of 168 to 169 °C.

With `CCOC(=O)C1=C(C)NC(C)=C(C(=O)OCC)C1c1cccc(F)c1F` [Example 38, Diethyl 4-(2,3-difluorophenyl)-1,4-dihydro-2,6-dimethylpyridine-3,5-dicarboxylate], the melting point is 161 to 162 °C.

In turn, `CCOC(=O)C1=C(C)NC(C)=C(C(=O)OCC)C1c1ccccc1[N+](=O)[O-]` [Example 14, Diethyl 1,4-dihydro-2,6-dimethyl-4-(2-nitrophenyl)pyridine-3,5-dicarboxylate] returned a melting point of 120 to 121 °C.

The molecule `CC1=C(C(=O)OC(C)(C)C)C(c2ccccc2Br)C(C(=O)OC(C)(C)C)=C(C)N1` [Example 14, Di-tert-butyl 4-(2-bromophenyl)-1,4-dihydro-2,6-dimethylpyridine-3,5-dicarboxylate] returned a melting point of 162 to 164 °C.
